In patent US4882357A, “Novel N-(substituted-phenyl)-5-(substituted-2,5-dimethylphenoxy)-2,2-dimethylp entanamides” (Warner-Lambert Company, priority 1988, dated 1989):

Assays:
[1] = molecular target: T1, acyl-CoA:cholesterol acyltransferase (ACAT) (Oryctolagus cuniculus, UniProt G1SFD9); assay: inhibition of esterification of cholesterol by ACAT (cholesteryl oleate formation), rabbit intestinal microsomal fraction; assay type: biochemical; conditions: endogenous cholesterol, exogenous 14C-oleoyl-CoA, read-out: IC50 (concentration of test compound required to inhibit cholesteryl oleate formation to 50% of control)
T1 construct: rabbit intestinal microsomal fraction; from tissue; host or cells: rabbit intestine, microsomal fraction
T1 sequence (G1SFD9 1-524): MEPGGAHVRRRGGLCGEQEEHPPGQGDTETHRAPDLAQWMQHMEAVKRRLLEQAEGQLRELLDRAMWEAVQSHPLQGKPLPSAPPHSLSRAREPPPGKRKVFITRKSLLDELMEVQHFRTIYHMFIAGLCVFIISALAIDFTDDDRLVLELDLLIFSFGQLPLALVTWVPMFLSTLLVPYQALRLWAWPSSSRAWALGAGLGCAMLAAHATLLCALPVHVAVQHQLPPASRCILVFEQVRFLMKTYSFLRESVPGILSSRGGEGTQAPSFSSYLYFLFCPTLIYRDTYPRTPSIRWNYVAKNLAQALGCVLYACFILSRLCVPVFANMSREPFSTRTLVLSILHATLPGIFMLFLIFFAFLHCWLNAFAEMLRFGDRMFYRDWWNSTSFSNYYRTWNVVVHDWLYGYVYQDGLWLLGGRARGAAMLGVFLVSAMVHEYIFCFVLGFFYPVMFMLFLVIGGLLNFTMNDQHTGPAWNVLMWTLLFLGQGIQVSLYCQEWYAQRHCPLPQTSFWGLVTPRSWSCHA
Description: The compounds of the present invention were tested for their ability to inhibit the esterification of cholesterol by the enzyme acyl-CoA:cholesterol acyltransferase (ACAT). The data in the table below is expressed as IC50 values, i.e., the concentration of test compound required to inhibit cholesteryl oleate formation to 50% of control.
The in vitro test employed is more fully described in Field, F. J. and Salome, R. G., Biochemica et Biophysica Acta, 712, pp 557-570 (1982). The assay evaluates the ability of a test compound to inhibit the esterification of cholesterol using endogenous cholesterol of a rabbit intestinal microsomal fraction and exogenous ^14 C-oleoyl-CoA as reactants.

HDL = assay: elevation of HDL, test drug versus gemfibrozil; assay type: in vivo, rats; conditions: 50 mg/kg test drug vs 50 mg/kg gemfibrozil; 1 = as effective as gemfibrozil
Description: Additionally, the elevation of HDL is reported in the table as a ratio of the elevation of HDL effected by a dose of 50 mg/kg of the test drug divided by the elevation of HDL effected by a 50 mg/kg dose of gemfibrozil which is used as a control in each experiment. [formula] Thus, a figure of 1 means that the test drug was as effective as gemfibrozil in elevating HDL. […] The test procedure is described in U.S. Pat. No. 4,413,011.

[2] = system: patients with elevated cholesterol levels; conditions: cited from earlier work

| Structure (SMILES) | IC50 [1] [µM] | ratio of the elevation of HDL effected by test drug divided by the elevation of HDL effected by gemfibrozil (HDL) | effect on LDL and HDL ([2]; in words) | reduction of the rate of heart attack and sudden cardiac death ([2]; patients with elevated cholesterol levels, five years) [%] |
| --- | --- | --- | --- | --- |
| Cc1ccc(NC(=O)C(C)(C)CCCOc2cc(C)ccc2C)c(C)c1 [Example 1b, 5-(2,5-Dimethylphenoxy)-N-(2,4-dimethylphenyl)-2,2-dimethylpentanamide] | 8 | 1.29 | – | – |
| Cc1ccc(C)c(OCCCC(C)(C)C(=O)O)c1 [gemfibrozil] | – | – | both lowers LDL and elevates HDL | 34 |
| COc1cc(C)ccc1NC(=O)C(C)(C)CCCOc1cc(C)ccc1C [Example 1a, 5-(2,5-dimethylphenoxy)-N-(2-methoxy-4-methylphenyl)-2,2-dimethylpentanamide] | 6 | 0.80 | – | – |
| CCCCCCOc1ccccc1NC(=O)C(C)(C)CCCOc1cc(C)ccc1C [Example 1f, 5-(2,5-dimethylphenoxy)-N[2-(hexyloxy)phenyl]-2,2-dimethylpentanamide] | 10 | 0.42 | – | – |
| Cc1ccc(C)c(OCCCC(C)(C)C(=O)Nc2ccc(C)cc2OC(C)C)c1 [Example 1j, 5-(2,5-Dimethylphenoxy)-2,2-dimethyl-N-[4-methyl-2-(1-methylethoxy)phenyl]pentanamide] | 8 | 0.84 | – | – |
| COC(=O)C(C)(C)CCCOc1ccccc1NC(=O)C(C)(C)CCCOc1cc(C)ccc1C [Example 1l, 5-[2[[5-(2,5-dimethylphenoxy)2,2-dimethyl-1-oxopentyl]amino]phenoxy]-2,2-dimethylpentanoic acid, methyl ester] | 8 | 0.4 | – | – |
| CCOc1ccccc1NC(=O)C(C)(C)CCCOc1cc(C)ccc1C [Example 1d, 5-(2,5-dimethylphenoxy)-N-(2-ethoxyphenyl)-2,2-dimethylpentanamide] | 5 | 1.08 | – | – |
| Cc1ccc(C)c(OCCCC(C)(C)C(=O)Nc2ccc3c(c2)OCO3)c1 [Example 1k, N-1,3-Benzodioxol-5-yl-5-(2,5-dimethylphenoxy)-2,2dimethylpentanamide] | 6 | 1.13 | – | – |
| COc1ccccc1NC(=O)C(C)(C)CCCOc1cc(C)ccc1C [Example 1, 5-(2,5-dimethylphenoxy)-N-(2-methoxyphenyl)-2,2-dimethylpentanamide] | 14 | 0.31 | – | – |
| Cc1ccc(C)c(OCCCC(C)(C)C(=O)Nc2ccc(F)cc2F)c1 [Example 1g, N-(2,4-Difluorophenyl)-5-(2,5-dimethylphenoxy)-2,2dimethylpentanamide] | 7 | 0.36 | – | – |
| COc1ccc(NC(=O)C(C)(C)CCCOc2cc(C)ccc2C)cc1OC [Example 1c, N-(3,4-Dimethoxyphenyl)-5-(2,5-dimethylphenoxy)-2,2-dimethylpentanamide] | 3 | 1.10 | – | – |
| CCOC(=O)C=Cc1ccc(NC(=O)C(C)(C)CCCOc2cc(C)ccc2C)cc1 [Example 5, 3-[4-[[5-(2,5-Dimethylphenoxy)-2,2-dimethyl-1-oxopentyl]amino]phenyl]-2-propenoic acid, ethyl ester, reference compound] | 45 | 0.56 | – | – |
| Cc1ccc(C)c(OCCCC(C)(C)C(=O)Nc2c(F)cc(F)cc2F)c1 [Example 1h, 5-(2,5-dimethylphenoxy)-2,2-dimethyl-N-(2,4,6-trifluorophenyl)pentanamide] | 0.8 | 0.74 | – | – |
| COC(=O)C(C)(C)CCCOc1cccc(NC(=O)C(C)(C)CCCOc2cc(C)ccc2C)c1 [Example 1m, 5-[3-[[5-(2,5-dimethylphenoxy)-2,2-dimethyl-1-oxopentyl]amino]phenoxy]-2,2-dimethylpentanoic acid, methyl ester] | 21 | 1.0 | – | – |
